# Measurements reported in patent publication US20240358692A1, “TREATMENT OF SCLERODERMA” (Aisa Pharma, Inc., priority 2023, published 2024).
# What was measured:
# [1] = test system: participants with SSc-RP; experiment: SHAQ - Visual Analog Scale - Finger Ulcers; assay type: in vivo, human; conditions: for SHAQ Visual Analogue Scale - Finger Ulcers, Change from Baseline, Mean (SD) / SHAQ Visual Analogue Scale - Finger Ulcers, Change from Baseline, Median / SHAQ Visual Analogue Scale - Finger Ulcers, In-Clinic Visit (Day 12), Mean (SD) / SHAQ Visual Analogue Scale - Finger Ulcers, In-Clinic Visit (Day 12), Median / SHAQ Visual Analogue Scale - Finger Ulcers, Percent Change from Baseline, Mean (SD) / SHAQ Visual Analogue Scale - Finger Ulcers, Percent Change from Baseline, Median: Day 12; for % improvement in VAS Digital Ulcers: SHAQ, mITT Part A
# Source text: (§1) The standard, validated, patient reported outcome measures tool for SSc patients, the Scleroderma Health Assessment Questionnaire (SHAQ), will be used to assess the participant qualify of life. Details are attached in the Appendix. The participant quality of life will be scored, and a disability index calculated for each questionnaire completed by the patient at Screening and each in-clinic visit. The absolute change in participant quality of life from baseline to the end of each dosing period will be calculated similar to frequency data as before.
# (§2) The standard, validated, patient reported outcome measures tool for SSc patients, the SHAQ, was collected at the time points specified in the study schedules (FIG. 2 and FIGS. 4A and 4B) to assess the participant's quality of life. The SHAQ included a Raynaud's VAS that will also be reported separately.
# [2] = test system: participants with SSc-RP; experiment: SHAQ - Visual Analog Scale - Overall Disease Severity; assay type: in vivo, human; conditions: Any Cilnidipine (N = 17); Day 12; PP Population, Part A
# Source text: as §1, §2
# [3] = Any Cilnidipine (N = 17), PP Population, Part A
# [4] = Cilnidipine 10 mg (N = 4), PP Population, Part A
# [5] = Cilnidipine 20 mg (N = 4), PP Population, Part A
# [6] = Pooled Cilnidipine 10 mg and Cilnidipine 10 mg + Tadalafil 5 mg, PP, Part A
# [7] = Pooled Cilnidipine 20 mg and Cilnidipine 20 mg + Tadalafil 5 mg, PP, Part A
# [8] = Pooled Cilnidipine (N = 8), PP Population, Part A
# [9] = cilnidipine 10 mg (combination: + tadalafil 5 mg)
# [10] = cilnidipine 20 mg (combination: + tadalafil 5 mg)
smiles,measurement,setting,value
COCCOC(=O)C1=C(C)NC(C)=C(C(=O)OC/C=C/c2ccccc2)C1c1cccc([N+](=O)[O-])c1 (stereo not shown) [Cilnidipine],"SHAQ Visual Analogue Scale - Finger Ulcers, Change from Baseline, Mean (SD)",[1]; [3],−0.540 (1.0568)
same,"SHAQ Visual Analogue Scale - Finger Ulcers, Change from Baseline, Median",[1]; [3],−0.100
same,"SHAQ Visual Analogue Scale - Finger Ulcers, In-Clinic Visit (Day 12), Mean (SD)",[1]; [3],0.731 (1.4351)
same,"SHAQ Visual Analogue Scale - Finger Ulcers, In-Clinic Visit (Day 12), Median",[1]; [3],0.000
same,"SHAQ Visual Analogue Scale - Finger Ulcers, Percent Change from Baseline, Mean (SD)",[1]; [3],−33.91 (69.617) %
same,"SHAQ Visual Analogue Scale - Finger Ulcers, Percent Change from Baseline, Median",[1]; [3],−36.11%
same,"SHAQ Visual Analogue Scale - Finger Ulcers, Change from Baseline, Median",[1]; [4],−0.350
same,"SHAQ Visual Analogue Scale - Finger Ulcers, In-Clinic Visit (Day 12), Median",[1]; [4],0.000
same,"SHAQ Visual Analogue Scale - Finger Ulcers, In-Clinic Visit (Day 12), Median","[1]; Cilnidipine 10 mg, PP Population Part A, sensitivity analysis",0.000
same,"SHAQ Visual Analogue Scale - Finger Ulcers, Change from Baseline, Median",[1]; [5],0.000
same,"SHAQ Visual Analogue Scale - Finger Ulcers, In-Clinic Visit (Day 12), Median",[1]; [5],0.350
same,% improvement in VAS Digital Ulcers,[1]; Cilnidipine 20 mg (n = 3),35%
same,"SHAQ Burden of Finger Ulcers, mean % change","[1]; Cilnidipine 20 mg (n = 3), minus = improvement, Table A*",−17%
same,"SHAQ Visual Analogue Scale - Finger Ulcers, In-Clinic Visit (Day 12), Mean","[1]; Pooled Cilnidipine 10 mg and Cilnidipine 10 mg + Tadalafil 5 mg (N = 9), Modified ITT Population - Part A",0.389
same,"SHAQ VAS Finger Ulcers, Change from Baseline, Max",[1]; [6],0.00
same,"SHAQ VAS Finger Ulcers, Change from Baseline, Min",[1]; [6],"−1.00,"
same,"SHAQ VAS Finger Ulcers, Change from Baseline, Q1",[1]; [6],"−0.500,"
same,"SHAQ VAS Finger Ulcers, Change from Baseline, Q3",[1]; [6],0.000
same,"SHAQ VAS Finger Ulcers, Day 12, Max",[1]; [6],1.50
same,"SHAQ VAS Finger Ulcers, Day 12, Min",[1]; [6],"0.00,"
same,"SHAQ VAS Finger Ulcers, Day 12, Q1",[1]; [6],"0.000,"
same,"SHAQ VAS Finger Ulcers, Day 12, Q3",[1]; [6],0.700
same,"SHAQ VAS Finger Ulcers, Percent Change from Baseline, Max",[1]; [6],0.0
same,"SHAQ VAS Finger Ulcers, Percent Change from Baseline, Min",[1]; [6],"−100.0,"
same,"SHAQ VAS Finger Ulcers, Percent Change from Baseline, Q1",[1]; [6],"−100.00,"
same,"SHAQ VAS Finger Ulcers, Percent Change from Baseline, Q3",[1]; [6],−12.50
same,"SHAQ VAS Finger Ulcers, Change from Baseline, Max",[1]; [7],0.40
same,"SHAQ VAS Finger Ulcers, Change from Baseline, Min",[1]; [7],"−3.20,"
same,"SHAQ VAS Finger Ulcers, Change from Baseline, Q1",[1]; [7],"−2.800,"
same,"SHAQ VAS Finger Ulcers, Change from Baseline, Q3",[1]; [7],0.000
same,"SHAQ VAS Finger Ulcers, Day 12, Max",[1]; [7],5.60
same,"SHAQ VAS Finger Ulcers, Day 12, Median",[1]; [7],0.000
same,"SHAQ VAS Finger Ulcers, Day 12, Min",[1]; [7],"0.00,"
same,"SHAQ VAS Finger Ulcers, Day 12, Q1",[1]; [7],"0.000,"
same,"SHAQ VAS Finger Ulcers, Day 12, Q3",[1]; [7],1.900
same,"SHAQ VAS Finger Ulcers, Percent Change from Baseline, Max",[1]; [7],133.3
same,"SHAQ VAS Finger Ulcers, Percent Change from Baseline, Min",[1]; [7],"−100.0,"
same,"SHAQ VAS Finger Ulcers, Percent Change from Baseline, Q1",[1]; [7],"−81.37,"
same,"SHAQ VAS Finger Ulcers, Percent Change from Baseline, Q3",[1]; [7],50.00
same,"SHAQ Visual Analogue Scale - Finger Ulcers, Change from Baseline, Mean (SD)",[1]; [8],−0.643 (1.2246)
same,"SHAQ Visual Analogue Scale - Finger Ulcers, Change from Baseline, Median",[1]; [8],0.000
same,"SHAQ Visual Analogue Scale - Finger Ulcers, In-Clinic Visit (Day 12), Mean (SD)",[1]; [8],0.463 (0.7170)
same,"SHAQ Visual Analogue Scale - Finger Ulcers, In-Clinic Visit (Day 12), Median",[1]; [8],0.000
same,"SHAQ Visual Analogue Scale - Finger Ulcers, Percent Change from Baseline, Mean (SD)",[1]; [8],−17.08 (103.378) %
same,"SHAQ Visual Analogue Scale - Finger Ulcers, Percent Change from Baseline, Median",[1]; [8],−50.82%
same,% improvement in VAS Digital Ulcers,[1]; Pooled Cilnidipine (n = 7),19%
same,"SHAQ VAS Finger Ulcers, Change from Baseline, Max","[1]; Pooled Cilnidipine, PP, Part A",0.40
same,"SHAQ VAS Finger Ulcers, Change from Baseline, Min","[1]; Pooled Cilnidipine, PP, Part A","−3.20,"
same,"SHAQ VAS Finger Ulcers, Change from Baseline, Q1","[1]; Pooled Cilnidipine, PP, Part A","−1.000,"
same,"SHAQ VAS Finger Ulcers, Change from Baseline, Q3","[1]; Pooled Cilnidipine, PP, Part A",0.000
same,"SHAQ VAS Finger Ulcers, Day 12, Max","[1]; Pooled Cilnidipine, PP, Part A",1.90
same,"SHAQ VAS Finger Ulcers, Day 12, Min","[1]; Pooled Cilnidipine, PP, Part A","0.00,"
same,"SHAQ VAS Finger Ulcers, Day 12, Q1","[1]; Pooled Cilnidipine, PP, Part A","0.000,"
same,"SHAQ VAS Finger Ulcers, Day 12, Q3","[1]; Pooled Cilnidipine, PP, Part A",0.900
same,"SHAQ VAS Finger Ulcers, Percent Change from Baseline, Max","[1]; Pooled Cilnidipine, PP, Part A",133.3
same,"SHAQ VAS Finger Ulcers, Percent Change from Baseline, Min","[1]; Pooled Cilnidipine, PP, Part A","−100.0,"
same,"SHAQ VAS Finger Ulcers, Percent Change from Baseline, Q1","[1]; Pooled Cilnidipine, PP, Part A","−81.37,"
same,"SHAQ VAS Finger Ulcers, Percent Change from Baseline, Q3","[1]; Pooled Cilnidipine, PP, Part A",47.22
same,VAS Finger Ulcers Change from Baseline Max,[1]; [9],0.00
same,VAS Finger Ulcers Change from Baseline Median,[1]; [9],−0.350
same,VAS Finger Ulcers Change from Baseline Min,[1]; [9],−1.00
same,VAS Finger Ulcers Change from Baseline Q1,[1]; [9],−0.850
same,VAS Finger Ulcers Change from Baseline Q3,[1]; [9],0.000
same,VAS Finger Ulcers Day 12 Max,[1]; [9],1.10
same,VAS Finger Ulcers Day 12 Median,[1]; [9],0.000
same,VAS Finger Ulcers Day 12 Min,[1]; [9],0.00
same,VAS Finger Ulcers Day 12 Q1,[1]; [9],0.000
same,VAS Finger Ulcers Day 12 Q3,[1]; [9],0.550
same,VAS Finger Ulcers Percent Change from Baseline Mean,[1]; [9],−69.44%
same,VAS Finger Ulcers Percent Change from Baseline Median,[1]; [9],−69.44%
same,VAS Finger Ulcers Percent Change from Baseline Min,[1]; [9],−100.0%
same,VAS Finger Ulcers Percent Change from Baseline Q1,[1]; [9],−100.00%
same,VAS Finger Ulcers Change from Baseline Max,[1]; [10],0.40
same,VAS Finger Ulcers Change from Baseline Mean,[1]; [10],−0.933
same,VAS Finger Ulcers Change from Baseline Median,[1]; [10],0.000
same,VAS Finger Ulcers Change from Baseline Min,[1]; [10],−3.20
same,VAS Finger Ulcers Change from Baseline Q1,[1]; [10],−3.200
same,VAS Finger Ulcers Change from Baseline Q3,[1]; [10],0.400
same,VAS Finger Ulcers Day 12 Max,[1]; [10],1.90
same,VAS Finger Ulcers Day 12 Median,[1]; [10],0.700
same,VAS Finger Ulcers Day 12 Min,[1]; [10],0.00
same,VAS Finger Ulcers Day 12 Q1,[1]; [10],0.000
same,VAS Finger Ulcers Day 12 Q3,[1]; [10],1.900
same,VAS Finger Ulcers Percent Change from Baseline Max,[1]; [10],133.3%
same,VAS Finger Ulcers Percent Change from Baseline Mean,[1]; [10],35.29%
same,VAS Finger Ulcers Percent Change from Baseline Median,[1]; [10],35.29%
same,VAS Finger Ulcers Percent Change from Baseline Min,[1]; [10],−62.7%
same,VAS Finger Ulcers Percent Change from Baseline Q1,[1]; [10],−62.75%
same,VAS Finger Ulcers Percent Change from Baseline Q3,[1]; [10],133.33%
same,"SHAQ Visual Analogue Scale - Overall Disease Severity, Change from Baseline, Mean (SD)",[2],−0.991 (1.0921)
same,"SHAQ Visual Analogue Scale - Overall Disease Severity, Change from Baseline, Median",[2],−1.100
same,"SHAQ Visual Analogue Scale - Overall Disease Severity, In-Clinic Visit (Day 12), Mean (SD)",[2],2.203 (2.1532)
same,"SHAQ Visual Analogue Scale - Overall Disease Severity, In-Clinic Visit (Day 12), Median",[2],1.400
same,"SHAQ Visual Analogue Scale - Overall Disease Severity, Percent Change from Baseline, Mean (SD)",[2],−36.33 (43.497) %
